Test results as given in patent publication US20130130991A1, “USE OF A PEPTIDE ENHANCING THE ABILITY OF RADIATION THERAPY TO KILL CANCER CELLS” (UNIVERSITE DE LAUSANNE, priority 2010, published 2013).
“Also recorded” adds a separate entry of the source.

Assays:
tumor cells = settings: cited from earlier work
tumor growth = settings: cited from earlier work
HCT116p53+/+ cells = assay: Clonogenic assay (CFA) after γ-irradiation, HCT116 p53+/+; format: cell-based; settings: 20 μM peptide, γ radiation 0-8 Gray, colonies counted after two weeks
Method: (§1) One hundred HeLa cells or 500 HCT116p53^+/+ or 500 HCT116p53^−/− cells were seeded in 8.5 cm plates and after 24 hours later treated or not with TAT or TAT-RasGAP317-326 (20 μM) prior exposure to the various doses of γ radiation (0, 1, 2, 4, 6 or 8 Gray).
(§2) After two weeks, the culture medium was removed and the plates were gently washed with water. A crystal violet solution (0.5% crystal violet in 25% methanol) was then added to stain colonies and gently washed out with water. The number of colonies was then counted.
(§3) The clonogenic formation assay (CFA) was performed using cancer cell lines (HCT116 with or without p53) (FIG. 1A-B) and non-tumorigenic HaCaT cells (FIG. 1C) that were subjected to the various doses of γ radiation (0, 1, 2, or 4, Gray), in the presence or in absence of TAT-RasGAP317-326 (20 μM). The number of colonies was determined two weeks after irradiation.

HaCaT cells = assay: Clonogenic assay (CFA) after γ-irradiation, non-tumorigenic HaCaT; format: cell-based; settings: 20 μM peptide, γ radiation 0, 1, 2 or 4 Gray, colonies after two weeks
Method: as §2, §3

HCT116 xenografts = assay: Radio-sensitization in mice bearing HCT116 xenografts; format: in vivo; settings: 1 mg/kg i.p. every day for 10 days, γ-irradiation 3 Gy 1 hour after injection, nu/nu mice
Text: (§4) Immunodeficient mice bearing subcutaneous tumors allow easy access of the tumors to defined fractionated irradiation doses with minimal effect on surrounding tissues and without the need of anesthesia. This latter point is important because anesthesia can modify the response to radiation therapy (Denekamp, 1979) and anesthesia is generally not used in patients during radiotherapy.
(§5) HCT116 tumor cells, lacking or not p53, were grafted onto the back of female Swiss homozygous nu/nu mice leading to the development of subcutaneous tumors. Then, the immunodeficient mice bearing subcutaneous tumors were divided into four experimental groups as follows:
(§6) 1) Intraperitoneal PBS injections and no irradiation. 2) Intraperitoneal TAT-RasGAP317-326 injections (every day, 1 mg peptide per kg of mouse in 300 μl PBS) and no irradiation. 3) Intraperitoneal PBS injection and γ-irradiation (3 Gy). 4) Intraperitoneal TAT-RasGAP317-326 injections and γ-irradiation.
(§7) The treatments (i.e. peptide injections followed by irradiation) were performed every day for 10 days without interruption. γ-irradiation was performed 1 hour after the peptide injection. The size of the tumors was monitored 3 times a week. #: mice were sacrificed when the tumors reached a volume of about 800 mm^3.

HCT116 p53−/− tumors = assay: Radio-sensitization in mice bearing HCT116 p53-/- xenografts; format: in vivo; settings: 1 mg/kg i.p. every day for 10 days, γ-irradiation 3 Gy 1 hour after injection, nu/nu mice
Text: as §4, §5, §6, §7

HCT116p53−/− cells = assay: Clonogenic assay (CFA) after γ-irradiation, HCT116 p53-/-; format: cell-based; settings: 20 μM peptide, γ radiation 0-8 Gray, colonies counted after two weeks
Method: as §1, §2, §3

## TAT-RasGAP317-326: HIV-TAT48-57 peptide conjugated to RasGAP317-326 (WMWVTNLRTD) with two glycine residues as spacer; cell permeable peptide (GRKKRRQRRRGGWMWVTNLRTD)
Tumor cells; non-tumor cells
  sensitization of non-tumor cells to genotoxin-induced apoptosis: nor does it sensitize non-tumor cells
Tumor cells; peptide by itself
  apoptosis of tumor cells by the peptide alone: does not by itself modulate apoptosis of tumor cells
Tumor cells; tumor cells with genotoxin
  sensitization of tumor cells to genotoxin-induced death: specifically sensitizes tumor cells to genotoxin-induced death
Tumor growth; combined with genotoxins
  ability of cisplatin and other genotoxins to inhibit tumor growth: increases the ability of cisplatin and other genotoxins to inhibit tumor growth
Tumor growth; mouse, in vivo
  dose still exerting genotoxin-sensitization on tumor growth, relative to lethal doses: > 100 fold below the lethal doses
HCT116p53+/+ cells
  efficacy of γ-irradiation-mediated cell killing (number of colonies): increases the efficacy of γ-irradiation-mediated cell killing
HaCaT cells
  γ-radiation-sensitivity of non-cancer cells (number of colonies): not in a non-cancer cell line; also recorded: no influence on the γ-radiation-sensitivity
HCT116 xenografts
  tumor growth / tumor volume of irradiated tumors: significant growth delay and reduction in tumor volume
HCT116 p53−/− tumors
  growth of irradiated HCT116 p53−/− tumors: very efficiently hampered
HCT116p53−/− cells
  efficacy of γ-irradiation-mediated cell killing (number of colonies): increases the efficacy of γ-irradiation-mediated cell killing
